Test results reported in patent US20250145633A1, “SUBSTITUTED FURANOPYRIMIDINE COMPOUNDS AS PDE1 INHIBITORS” (Dart NeuroScience, LLC, priority 2017, published 2025).

Target: human PDE1B enzyme (Homo sapiens (Human), UniProt Q01064)
Assay: IMAP TR-FRET PDE1B enzymatic assay
Assay type: biochemical
Details: negative log of half-maximal molar inhibitory concentration, 200 nM FAM-cAMP, values given as bins; for IC50: read-out: PDE1b (pIC50) (converted)
Method: PDE1B inhibition was determined by an IMAP TR-FRET assay. The IMAP TR-FRET PDE assay was optimized for concentration of enzyme, Calmodulin, cAMP or cGMP substrate, DMSO tolerance, and incubation time.
Into each well of a solid white 1536 well plate (Corning) was dispensed 250 pg full-length recombinant NH-terminal GST tagged human PDE1B enzyme (BPS Bioscience Cat #60011, San Diego, CA) in 2.5 μL IMAP BSA reaction buffer (Molecular Devices, Sunnyvale, CA) containing 10 U/ml Calmodulin and 2.5 mM CaCl2) (Sigma Aldrich.) After a brief centrifugation, 30 nL of compound was added by transfer from 1 mM stock in DMSO using a Kalypsys 1536 Pintool. Plates were incubated for 5 minutes at room temperature before dispensing 1.5 μL of 533 nM 5-carboxy fluorescein (FAM)-labeled cAMP (Molecular Devices, Sunnyvale, CA) for a final concentration of 200 nM. After a brief centrifugation, the plates were incubated for 30 minutes at room temperature. The assay was terminated by adding 5 μL IMAP binding reagent/Tb complex (Molecular Devices, Sunnyvale, CA) to each well.
Plates were incubated for 1 hour at room temperature and were read on a Viewlux multimode plate reader (Perkin Elmer). The instrument was set to excite using the DUG11 filter and measure using 490/10 nm and 520/10 nm filters. Ratios of acceptor and donor were then calculated.
For IC50 calculations, the values of % efficacy versus a series of compound concentrations were then plotted using non-linear regression analysis of sigmoidal dose-response curves generated with the equation Y=[B+(T−B)]/[1+10((Log EC50−X)×Hill Slope)], where Y=percent activity, B=minimum percent efficacy, T=maximum percent efficacy, X=logarithm of compound and Hill Slope=slope factor or Hill coefficient. The IC50 value was determined by the concentration causing a half-maximal percent efficacy.

Structure (SMILES)	IC50	PDE1b (pIC50)
Cc1oc2ncnc(NC3(C)CC3)c2c1C(=O)NCCc1ccc(F)cc1 [Example 50, N-[2-(4-Fluorophenyl)ethyl]-6-methyl-4-[(1-methylcyclopropyl)amino]furo[2,3-d]pyrimidine-5-carboxamide]	10 to 100 nM	–
Cc1oc2ncnc(NC3(C)CC3)c2c1C(=O)NC(C)c1ccc(F)cn1 (stereo not shown) [Example 51, N-[1-(5-Fluoropyridin-2-yl)ethyl]-6-methyl-4-[(1-methylcyclopropyl)amino]furo[2,3-d]pyrimidine-5-carboxamide]	–	>8
Cc1oc2ncnc(NC3(C)CC3)c2c1C(=O)NCc1ccc(C#N)cc1 [Example 52, N-[(4-Cyanophenyl)methyl]-6-methyl-4-[(1-methylcyclopropyl)amino]furo[2,3-d]pyrimidine-5-carboxamide]	10 to 100 nM	–
COc1cccc(CNC(=O)c2c(C)oc3ncnc(NC4(C)CC4)c23)n1 [Example 53, N-[(6-Methoxypyridin-2-yl)methyl]-6-methyl-4-[(1-methylcyclopropyl)amino]furo[2,3-d]pyrimidine-5-carboxamide]	10 to 100 nM	–
COc1ccc(CNC(=O)c2c(C)oc3ncnc(NC4(C)CC4)c23)cn1 [Example 54, N-[(6-Methoxypyridin-3-yl)methyl]-6-methyl-4-[(1-methylcyclopropyl)amino]furo[2,3-d]pyrimidine-5-carboxamide]	–	>8
COc1ccc(CNC(=O)c2c(C)oc3ncnc(NC4(C)CC4)c23)nc1 [Example 55, N-[(5-Methoxypyridin-2-yl)methyl]-6-methyl-4-[(1-methylcyclopropyl)amino]furo[2,3-d]pyrimidine-5-carboxamide]	–	>8
Cc1oc2ncnc(NC3(C)CC3)c2c1C(=O)N1CC(c2ccc(F)cc2)C1 [Example 56, 5-[3-(4-Fluorophenyl)azetidine-1-carbonyl]-6-methyl-N-(1-methylcyclopropyl)furo[2,3-d]pyrimidin-4-amine]	–	>8
Cc1oc2ncnc(NC3(C)CC3)c2c1C(=O)N1CCC(c2ccc(F)cc2)C1 (stereo not shown) [Example 57, 5-[3-(4-Fluorophenyl)pyrrolidine-1-carbonyl]-6-methyl-N-(1-methylcyclopropyl)furo[2,3-d]pyrimidin-4-amine]	–	>8
Cc1oc2ncnc(NC3(C)CC3)c2c1C(=O)N1CCc2cc(C#N)ccc2C1 [Example 58, 2-{6-Methyl-4-[(1-methylcyclopropyl)amino]furo[2,3-d]pyrimidine-5-carbonyl}-1,2,3,4-tetrahydroisoquinoline-6-carbonitrile]	10 to 100 nM	–
Cc1oc2ncnc(NC3(C)CC3)c2c1C(=O)NCc1ccc(OC(F)F)cn1 [Example 59, N-{[5-(Difluoromethoxy)pyridin-2-yl]methyl}-6-methyl-4-[(1-methylcyclopropyl)amino]furo[2,3-d]pyrimidine-5-carboxamide]	–	>8
Cc1oc2ncnc(NC3(C)CC3)c2c1C(=O)N1CCC(c2ccc(F)cc2)CC1 [Example 60, 5-[4-(4-Fluorophenyl)piperidine-1-carbonyl]-6-methyl-N-(1-methylcyclopropyl)furo[2,3-d]pyrimidin-4-amine]	–	>8
Cc1oc2ncnc(NC3(C)CC3)c2c1C(=O)N1CCN(c2ccc(F)cc2)CC1 [Example 61, 5-[4-(4-Fluorophenyl)piperazine-1-carbonyl]-6-methyl-N-(1-methylcyclopropyl)furo[2,3-d]pyrimidin-4-amine]	–	>8
Cc1oc2ncnc(NC3(C)CC3)c2c1C(=O)N1CCC(F)(c2ccccn2)CC1 [Example 62, 5-[4-Fluoro-4-(pyridin-2-yl)piperidine-1-carbonyl]-6-methyl-N-(1-methylcyclopropyl)furo[2,3-d]pyrimidin-4-amine]	–	>8
Cc1oc2ncnc(NC3(C)CC3)c2c1C(=O)N1CCC(O)(c2ccc(F)cc2)CC1 [Example 63, 4-(4-Fluorophenyl)-1-{6-methyl-4-[(1-methylcyclopropyl)amino]furo[2,3-d]pyrimidine-5-carbonyl}piperidin-4-ol]	–	>8
Cc1oc2ncnc(NC3(C)CC3)c2c1C(=O)N1CCN(c2ccc(F)c(F)c2)C(=O)C1 [Example 64, 1-(3,4-Difluorophenyl)-4-{6-methyl-4-[(1-methylcyclopropyl)amino]furo[2,3-d]pyrimidine-5-carbonyl}piperazin-2-one]	10 to 100 nM	–
Cc1oc2ncnc(NC3(C)CC3)c2c1C(=O)N1C[C@@H]2[C@H](C1)[C@H]2c1ccc(C(F)(F)F)cn1 [Example 65, 6-Methyl-N-(1-methylcyclopropyl)-5-[(1R,5S,6S)-6-[5-(trifluoromethyl)pyridin-2-yl]-3-azabicyclo[3.1.0]hexane-3-carbonyl]furo[2,3-d]pyrimidin-4-amine]	100 to 1000 nM	–

Structure (SMILES)	IC50	PDE1b (pIC50)
Cc1oc2ncnc(NC3(C)CC3)c2c1C(=O)NCc1cccc(C#N)c1 [Example 66, N-[(3-Cyanophenyl)methyl]-6-methyl-4-[(1-methylcyclopropyl)amino]furo[2,3-d]pyrimidine-5-carboxamide]	–	>8
Cc1oc2ncnc(NC3(C)CC3)c2c1C(=O)N1CCC(O)(c2ccc(F)cc2)C1 (stereo not shown) [Example 67, 3-(4-Fluorophenyl)-1-{6-methyl-4-[(1-methylcyclopropyl)amino]furo[2,3-d]pyrimidine-5-carbonyl}pyrrolidin-3-ol]	–	>8
Cc1oc2ncnc(NC3(C)CC3)c2c1C(=O)NC(C)c1ccc(F)cc1 (stereo not shown) [Example 68, N-[1-(4-Fluorophenyl)ethyl]-6-methyl-4-[(1-methylcyclopropyl)amino]furo[2,3-d]pyrimidine-5-carboxamide]	10 to 100 nM	–
Cc1oc2ncnc(NC3(C)CC3)c2c1C(=O)NC1(c2ccc(F)cc2)CC1 [Example 69, N-[1-(4-Fluorophenyl)cyclopropyl]-6-methyl-4-[(1-methylcyclopropyl)amino]furo[2,3-d]pyrimidine-5-carboxamide]	–	>8
Cc1oc2ncnc(NC3(C)CC3)c2c1C(=O)N1CCC(c2ccccn2)C1 (stereo not shown) [Example 70, 6-Methyl-N-(1-methylcyclopropyl)-5-[3-(pyridin-2-yl)pyrrolidine-1-carbonyl]furo[2,3-d]pyrimidin-4-amine]	10 to 100 nM	–
Cc1oc2ncnc(NC3(C)CC3)c2c1C(=O)N1CCC(c2cccnc2)C1 (stereo not shown) [Example 71, 6-Methyl-N-(1-methylcyclopropyl)-5-[3-(pyridin-3-yl)pyrrolidine-1-carbonyl]furo[2,3-d]pyrimidin-4-amine]	10 to 100 nM	–
Cc1oc2ncnc(NC3(C)CC3)c2c1C(=O)N1CCC(c2ccncc2)C1 (stereo not shown) [Example 72, 6-Methyl-N-(1-methylcyclopropyl)-5-[3-(pyridin-4-yl)pyrrolidine-1-carbonyl]furo[2,3-d]pyrimidin-4-amine]	10 to 100 nM	–
Cc1oc2ncnc(NC3(C)CC3)c2c1C(=O)NCc1nccs1 [Example 73, 6-Methyl-4-[(1-methylcyclopropyl)amino]-N-(1,3-thiazol-2-ylmethyl)furo[2,3-d]pyrimidine-5-carboxamide]	10 to 100 nM	–
Cc1oc2ncnc(NC3(C)CC3)c2c1C(=O)NCc1cncs1 [Example 74, 6-Methyl-4-[(1-methylcyclopropyl)amino]-N-(1,3-thiazol-5-ylmethyl)furo[2,3-d]pyrimidine-5-carboxamide]	10 to 100 nM	–
Cc1oc2ncnc(NC3(C)CC3)c2c1C(=O)NCc1cscn1 [Example 75, 6-Methyl-4-[(1-methylcyclopropyl)amino]-N-(1,3-thiazol-4-ylmethyl)furo[2,3-d]pyrimidine-5-carboxamide]	10 to 100 nM	–
Cc1oc2ncnc(NC3(C)CC3)c2c1C(=O)NCc1ccccn1 [Example 76, 6-Methyl-4-[(1-methylcyclopropyl)amino]-N-(pyridin-2-ylmethyl)furo[2,3-d]pyrimidine-5-carboxamide]	10 to 100 nM	–
Cc1oc2ncnc(NC3(C)CC3)c2c1C(=O)NC(C)c1ccccn1 (stereo not shown) [Example 77, 6-Methyl-4-[(1-methylcyclopropyl)amino]-N-[1-(pyridin-2-yl)ethyl]furo[2,3-d]pyrimidine-5-carboxamide]	10 to 100 nM	–
Cc1oc2ncnc(NC3(C)CC3)c2c1C(=O)NC(C)(C)c1ccccn1 [Example 78, 6-Methyl-4-[(1-methylcyclopropyl)amino]-N-[2-(pyridin-2-yl)propan-2-yl]furo[2,3-d]pyrimidine-5-carboxamide]	10 to 100 nM	–
Cc1oc2ncnc(NC3(C)CC3)c2c1C(=O)NC1(c2ccccn2)CC1 [Example 79, 6-Methyl-4-[(1-methylcyclopropyl)amino]-N-[1-(pyridin-2-yl)cyclopropyl]furo[2,3-d]pyrimidine-5-carboxamide]	10 to 100 nM	–
CNC(=O)c1c(C)oc2ncnc(NC3(C)CC3)c12 [Example 80, N,6-Dimethyl-4-[(1-methylcyclopropyl)amino]furo[2,3-d]pyrimidine-5-carboxamide]	100 to 1000 nM	–
